From patent US20250059213A1, “LONP1 INHIBITORS, USES AND METHODS” (Pretzel Therapeutics, Inc., priority 2021, published 2025)

Molecular target: LONP1 (NM_004793.4) (Homo sapiens (Human), UniProt P36776)
Experiment: LONP1 FRET-based protease activity assay (fluorogenic peptide substrate)
Format: biochemical
Settings: LONP1 15 nM, substrate 3 μM, 15 min preincubation, 1 hour at 37° C.; average of a minimum of two repeats
Experimental: Inhibition of LONP1 protease activity by an inhibitor compound of the disclosure elicits a decrease in the fluorescent signal.
The LONP1-containing mix (10 μL) was incubated with the test compound for 15 min at 37° C. before adding the peptide-containing mix (5 μL). Solutions were dispensed using a small cassette-Multidrop Combi (Thermo Scientific).
Each value is based on an average of a minimum of two repeats.

Sequence of LONP1 (NM_004793.4) (P36776 68-959): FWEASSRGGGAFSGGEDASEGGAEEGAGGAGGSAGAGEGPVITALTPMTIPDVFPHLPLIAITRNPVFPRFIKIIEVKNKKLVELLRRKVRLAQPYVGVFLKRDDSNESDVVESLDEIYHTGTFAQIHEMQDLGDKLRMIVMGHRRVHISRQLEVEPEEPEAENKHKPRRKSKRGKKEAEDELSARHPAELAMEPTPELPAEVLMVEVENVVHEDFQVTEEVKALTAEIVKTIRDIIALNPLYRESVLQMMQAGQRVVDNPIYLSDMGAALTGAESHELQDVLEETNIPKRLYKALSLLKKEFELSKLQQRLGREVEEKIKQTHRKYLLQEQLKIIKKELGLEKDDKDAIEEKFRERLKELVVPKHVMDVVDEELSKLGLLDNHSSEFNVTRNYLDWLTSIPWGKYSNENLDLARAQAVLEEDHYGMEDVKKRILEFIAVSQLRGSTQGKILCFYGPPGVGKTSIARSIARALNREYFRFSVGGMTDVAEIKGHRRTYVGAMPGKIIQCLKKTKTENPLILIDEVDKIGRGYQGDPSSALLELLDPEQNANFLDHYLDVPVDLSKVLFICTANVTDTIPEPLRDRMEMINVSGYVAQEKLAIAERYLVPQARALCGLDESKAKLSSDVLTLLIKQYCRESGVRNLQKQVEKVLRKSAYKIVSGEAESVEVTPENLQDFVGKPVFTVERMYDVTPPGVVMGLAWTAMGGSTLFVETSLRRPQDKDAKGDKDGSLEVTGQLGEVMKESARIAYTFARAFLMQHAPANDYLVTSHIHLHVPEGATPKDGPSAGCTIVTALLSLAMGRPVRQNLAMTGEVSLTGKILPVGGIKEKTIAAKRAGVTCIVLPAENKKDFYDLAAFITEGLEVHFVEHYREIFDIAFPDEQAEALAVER

Row | SMILES | IC50 [nM]
1 | COC[C@@H](NC(=O)c1ccccc1)C(=O)N[C@@H](CCCc1ccccc1)B(O)O [Compound 48, ((R)-1-((R)-2-benzamido-3-methoxypropanamido)-4-phenylbutyl)boronic acid] | < 50
2 | COC[C@@H](NC(=O)c1cnccn1)C(=O)N[C@@H](CCCc1ccccc1)B(O)O [Compound 37, ((R)-1-((R)-3-methoxy-2-(pyrazine-2-carboxamido)propanamido)-4-phenylbutyl)boronic acid] | < 50
3 | NC(=O)C[C@@H](NC(=O)c1cnccn1)C(=O)N[C@@H](CCCc1ccccc1)B(O)O [Compound 10, ((R)-1-((R)-4-amino-4-oxo-2-(pyrazine-2-carboxamido)butanamido)-4-phenylbutyl)boronic acid] | < 50
4 | COC[C@@H](NC(=O)c1cccc(OC)n1)C(=O)N[C@@H](CCCc1ccccc1)B(O)O [Compound 50, ((R)-1-((R)-3-methoxy-2-(6-methoxypicolinamido)propanamido)-4-phenylbutyl)boronic acid] | < 50
5 | CCC[C@@H](NC(=O)c1cnccn1)C(=O)N[C@@H](COCc1ccccc1)B(O)O [Compound 39, ((R)-2-(benzyloxy)-1-((R)-2-(pyrazine-2-carboxamido)pentanamido)ethyl)boronic acid] | < 50
6 | O=C(C[C@@H](NC(=O)c1cnccn1)C(=O)N[C@@H](CCCc1ccccc1)B(O)O)c1ccccc1 [Compound 3, ((1R)-1-(4-oxo-4-phenyl-2-(pyrazine-2-carboxamido)butanamido)-4-phenylbutyl)boronic acid] | < 50
7 | CC(C)(C)OC(=O)N[C@H](CC(=O)N1CCOCC1)C(=O)N[C@@H](CCCc1ccccc1)B(O)O [Compound 21, ((R)-1-((R)-2-((tert-butoxycarbonyl)amino)-4-morpholino-4-oxobutanamido)-4-phenylbutyl)boronic acid] | < 50
8 | Cc1nc(C)c(C(=O)N[C@H](CC(=O)N2CCOCC2)C(=O)N[C@@H](CC(C)C)B(O)O)o1 [Compound 7, ((R)-1-((R)-2-(2,4-dimethyloxazole-5-carboxamido)-4-morpholino-4-oxobutanamido)-3-methylbutyl)boronic acid] | < 50
9 | O=C(N[C@H](COc1ccccn1)C(=O)N[C@@H](CCCc1ccccc1)B(O)O)c1cnccn1 [Compound 29, ((R)-4-phenyl-1-((R)-2-(pyrazine-2-carboxamido)-3-(pyridin-2-yloxy)propanamido)butyl)boronic acid] | < 50
10 | CCC[C@H](C(=O)N[C@@H](CCCc1ccccc1)B(O)O)N(C)C(=O)c1cnccn1 [Compound 51, ((R)-1-((R)-2-(N-methylpyrazine-2-carboxamido)pentanamido)-4-phenylbutyl)boronic acid] | 50 to 500
11 | CCC[C@H](C(=O)N(C)[C@@H](CCCc1ccccc1)B(O)O)N(C)C(=O)c1cnccn1 [Compound 52, ((R)-1-((R)—N-methyl-2-(N-methylpyrazine-2-carboxamido)pentanamido)-4-phenylbutyl)boronic acid] | 50 to 500
12 | COC[C@@H](NC(=O)c1cnccn1)C(=O)N[C@@H](COCc1ccccc1)B(O)O [Compound 38, ((R)-2-(benzyloxy)-1-((R)-3-methoxy-2-(pyrazine-2-carboxamido)propanamido)ethyl)boronic acid] | < 50
13 | CN(C)S(=O)(=O)C[C@@H](NC(=O)c1cnccn1)C(=O)N[C@@H](CCCc1ccccc1)B(O)O [Compound 27, ((R)-1-((S)-3-(N,N-dimethylsulfamoyl)-2-(pyrazine-2-carboxamido)propanamido)-4-phenylbutyl)boronic acid] | < 50
14 | CS(=O)(=O)CC[C@@H](NC(=O)c1cnccn1)C(=O)N[C@@H](CCCc1ccccc1)B(O)O [Compound 35, ((R)-1-((R)-4-(methylsulfonyl)-2-(pyrazine-2-carboxamido)butanamido)-4-phenylbutyl)boronic acid] | < 50

More lines, now with the values ahead:

Row | IC50 [nM] | SMILES
15 | < 50 | CCNC(=O)C[C@@H](NC(=O)c1cnccn1)C(=O)N[C@@H](CCCc1ccccc1)B(O)O [Compound 9, ((R)-1-((R)-4-(ethylamino)-4-oxo-2-(pyrazine-2-carboxamido)butanamido)-4-phenylbutyl)boronic acid]
16 | > 5000 | O=C(NC(CC(=O)N1CCOCC1)C(=O)N[C@@H](Cc1ccccc1)B(O)O)c1cnccn1 (stereo in doubt) [Compound 47, ((R)-1-((R)-4-morpholino-4-oxo-2-(pyrazine-2-carboxamido)butanamido)-2-phenylethyl)boronic acid]
17 | < 50 | O=C(N[C@@H](CCCc1ccccc1)B(O)O)[C@@H](CC(=O)N1CCOCC1)NS(=O)(=O)c1ccccc1 [Compound 43, ((R)-1-((R)-4-morpholino-4-oxo-2-(phenylsulfonamido)butanamido)-4-phenylbutyl)boronic acid]
18 | < 50 | CCC[C@H](NC(=O)[C@@H](CC(=O)N1CCOCC1)NC(=O)c1cnccn1)B(O)O [Compound 31, ((R)-1-((R)-4-morpholino-4-oxo-2-(pyrazine-2-carboxamido)butanamido)butyl)boronic acid]
19 | < 50 | CC(C)C[C@H](NC(=O)[C@@H](CC(=O)N1CCOCC1)NC(=O)c1cnccn1)B(O)O [Compound 4, ((R)-3-methyl-1-((R)-4-morpholino-4-oxo-2-(pyrazine-2-carboxamido)butanamido)butyl)boronic acid]
20 | < 50 | O=C(N[C@H](CC(=O)N1CCCCC1)C(=O)N[C@@H](CCCc1ccccc1)B(O)O)c1cnccn1 [Compound 11, ((R)-1-((R)-4-oxo-4-(piperidin-1-yl)-2-(pyrazine-2-carboxamido)butanamido)-4-phenylbutyl)boronic acid]
21 | < 50 | O=C(N[C@@H](CCCc1ccccc1)B(O)O)[C@@H](CC(=O)N1CCOCC1)NC(=O)N1CCOCC1 [Compound 20, ((R)-1-((R)-2-(morpholine-4-carboxamido)-4-morpholino-4-oxobutanamido)-4-phenylbutyl)boronic acid]
22 | < 50 | CC[C@H](NC(=O)[C@@H](CC(=O)N1CCOCC1)NC(=O)c1cnccn1)B(O)O [Compound 32, ((R)-1-((R)-4-morpholino-4-oxo-2-(pyrazine-2-carboxamido)butanamido)propyl)boronic acid]
23 | < 50 | O=C(N[C@H](CC(=O)N1CCOCC1)C(=O)N[C@@H](CCCc1ccccc1)B(O)O)C1CCCCO1 (stereo partly drawn) [Compound 44, ((1R)-1-((2R)-4-morpholino-4-oxo-2-(tetrahydro-2H-pyran-2-carboxamido)butanamido)-4-phenylbutyl)boronic acid]
24 | < 50 | O=C(N[C@H](CC(=O)N1CCOCC1)C(=O)N[C@@H](CCc1ccccc1)B(O)O)c1cnccn1 [Compound 5, ((R)-1-((R)-4-morpholino-4-oxo-2-(pyrazine-2-carboxamido)butanamido)-3-phenylpropyl)boronic acid]
25 | < 50 | O=C(N[C@H](CCC(=O)N1CCOCC1)C(=O)N[C@@H](CCCc1ccccc1)B(O)O)c1cnccn1 [Compound 23, ((R)-1-((R)-5-morpholino-5-oxo-2-(pyrazine-2-carboxamido)pentanamido)-4-phenylbutyl)boronic acid]
26 | < 50 | CCCC[C@H](NC(=O)[C@@H](CC(=O)N1CCOCC1)NC(=O)c1cnccn1)B(O)O [Compound 6, ((R)-1-((R)-4-morpholino-4-oxo-2-(pyrazine-2-carboxamido)butanamido)pentyl)boronic acid]
27 | < 50 | O=C(N[C@H](CC(=O)N1CCOCC1)C(=O)NC(CCCc1ccccc1)B(O)O)C1CCCCC1 (stereo in doubt) [Compound 41, ((R)-1-((R)-2-(cyclohexanecarboxamido)-4-morpholino-4-oxobutanamido)-4-phenylbutyl)boronic acid]
28 | < 50 | O=C(N[C@H](CC(=O)N1CCOCC1)C(=O)NC(CCCc1ccccc1)B(O)O)C1CCOCC1 (stereo in doubt) [Compound 42, ((R)-1-((R)-4-morpholino-4-oxo-2-(tetrahydro-2H-pyran-4-carboxamido)butanamido)-4-phenylbutyl)boronic acid]
29 | < 50 | CN(C)C(=O)C[C@@H](NC(=O)c1cnccn1)C(=O)N[C@@H](CCCc1ccccc1)B(O)O [Compound 8, ((R)-1-((R)-4-(dimethylamino)-4-oxo-2-(pyrazine-2-carboxamido)butanamido)-4-phenylbutyl)boronic acid]
30 | < 50 | CC(=O)N[C@H](CC(=O)N1CCOCC1)C(=O)N[C@@H](CCCc1ccccc1)B(O)O [Compound 19, ((R)-1-((R)-2-acetamido-4-morpholino-4-oxobutanamido)-4-phenylbutyl)boronic acid]
31 | < 50 | CN(C)C(=O)N[C@H](CC(=O)N1CCOCC1)C(=O)N[C@@H](CCCc1ccccc1)B(O)O [Compound 33, ((R)-1-((R)-2-(3,3-dimethylureido)-4-morpholino-4-oxobutanamido)-4-phenylbutyl)boronic acid]
32 | 50 to 500 | CC(C)(C)NC(=O)N[C@H](CC(=O)N1CCOCC1)C(=O)N[C@@H](CCCc1ccccc1)B(O)O [Compound 22, ((R)-1-((R)-2-(3-(tert-butyl)ureido)-4-morpholino-4-oxobutanamido)-4-phenylbutyl)boronic acid]
